From US11422106B2, “Using 4-acetoxyphenol as a substrate for modular hydrolase biosensors” (United States Government, as represented by the …, priority 2019, dated 2022)
Values joined by “and” are separate entries in the source; they are usually repeats but may differ in a detail not shown here. Equal entries are not always repeated.

Legend:
[1] = molecular target: T1, Acetylcholinesterase (AchE) (Electrophorus electricus, UniProt O42275); test: Amperometric activity assay of immobilized AchE electrode with 4-acetoxyphenol (steady state current at 0.35 V); type: biochemical, Electrophorus electricus (electric eel); details: substrate 4-acetoxyphenol
T1 construct: purchased Sigma-Aldrich Type VI-S (catalogue number not given)
Protocol: Acetylcholinesterase (E.C. 3.1.1.7) Type VI-S from Electrophorus electricus (electric eel) with activity of 217 U mg^−1 protein, was purchased from Sigma-Aldrich. 4-Acetoxyphenol was purchased from Combi-Blocks (San Diego, Calif., USA). All other chemicals were purchased from Sigma-Aldrich (reagent grade) and used as received.
A mixture of BSA and AchE (containing 0.50 μg, or 0.11 U of the AchE, 8 μg of BSA in 10 μl of 0.06 M phosphate, pH 7.0) was spread on the working electrode of carbon SPE (RRPE1002C). The proteins were deposited on the electrode surface by air drying, and then crosslinked by adding 10 μl of 0.0021% of glutaraldehyde solution in water. The electrode was air dried at room temperature for 16 h to complete the crosslinking. To hydrate the sensor, it was stored in 0.1 M Tris-HCl, pH 7.0 for >24 h at room temperature before use.
Electrochemical evaluations were carried out in the low volume SPE cell (Pine Research Instrumentation, Durham, N.C., USA), and the conditions controlled by a DY2013 Potentiostat with DY2000 software (Digi-Ivy, Inc. Austin, Tex., USA). The working potential was set with the Ag/AgCl electrode on the SPE as the reference. […]
All evaluations were carried out at 22±2° C. The current in amperometric determination was recorded for 150 s. […] The average of the readings between 120 s and 150 s was used as the steady-state current. […]

[2] = molecular target: T1, Acetylcholinesterase (AchE); test: Speciation of As(III)/As(V) mixtures with the AchE sensor versus ICP-AES; type: biochemical, Electrophorus electricus (electric eel); details: 5 μM As(V) mixed with 0-20 μM As(III), 0.1 M Tris-HCl pH 8.0
[3] = molecular target: T1, Acetylcholinesterase (AchE); type: biochemical, Electrophorus electricus (electric eel)
[4] = Hydrolase activity of commercial enzymes with 4-acetoxyphenol as substrate; type: biochemical
From the text: Instead of, or in addition to, AchE, the preferred biosensors of the present subject matter can utilize a wide range of enzyme(s). Table 1 set forth below lists a representative list of enzymes suitable for use in the biosensors of the present subject matter. The preferred biosensors can utilize one or more of these enzyme(s) instead of, or in addition to, AchE. It is also contemplated that other enzyme(s) could potentially be used in the biosensors of the present subject matter.

T1 sequence (O42275 24-633): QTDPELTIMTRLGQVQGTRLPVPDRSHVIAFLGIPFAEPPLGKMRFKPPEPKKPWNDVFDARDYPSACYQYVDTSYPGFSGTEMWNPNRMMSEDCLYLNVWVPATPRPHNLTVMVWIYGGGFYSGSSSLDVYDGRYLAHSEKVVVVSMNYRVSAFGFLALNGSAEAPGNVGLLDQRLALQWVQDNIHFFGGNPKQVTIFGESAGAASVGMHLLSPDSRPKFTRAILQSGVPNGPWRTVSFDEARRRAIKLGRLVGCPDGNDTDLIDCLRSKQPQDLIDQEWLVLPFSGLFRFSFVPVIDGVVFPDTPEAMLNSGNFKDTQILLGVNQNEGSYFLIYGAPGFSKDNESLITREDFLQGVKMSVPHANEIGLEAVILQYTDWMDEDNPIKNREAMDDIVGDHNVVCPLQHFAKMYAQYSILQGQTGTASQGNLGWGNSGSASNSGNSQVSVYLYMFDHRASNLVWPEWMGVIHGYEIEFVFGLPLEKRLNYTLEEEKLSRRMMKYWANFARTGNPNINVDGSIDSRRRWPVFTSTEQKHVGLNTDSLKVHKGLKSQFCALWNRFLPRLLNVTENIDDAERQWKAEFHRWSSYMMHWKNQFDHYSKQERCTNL

Q: With `CC(=O)Oc1ccc(O)cc1` [4-acetoxyphenol] as the molecule, how does the “Vmax (Michaelis-Menten fit of steady state current)” value [1] read?
A: 24.2±1.1 μA

Q: And the “current density corresponding to Vmax” value [1]?
A: 121+5.25 μA cm^−2

Q: For `O.O.O.O.O.O.O.O=[As]([O-])([O-])O.[Na+].[Na+]` [As(V), Na2HAsO4.7H2O], which “sensitivity of the AchE sensor to the species” value [2] is on record?
A: not sensitive

Q: What does the source list for sodium arsenite [As(III)]?
A: estimated inhibition (from linear regression) [3]: 50.7±5.7%; inhibition [3]: about 55%; maximum inhibition [3]: 69.3% and 65.7%; IMax ([3]; pH 8): 70-75%; Ki ([3]; pH 8): 61.6 µM; k1 (reversible pseudo-first order model) ([3]; pH 8): 47.3 M⁻¹ s⁻¹; second (dissociation) rate constant of the reversible pseudo-first order model, symbol not given ([3]; pH 8): 0.175 M⁻¹

B1: Palatase 20000 L: Lipase, Novozyme, Rhizomucor miehei (protein, UniProt P19515 95-363, looked up)
Lipase: SIDGGIRAATSQEINELTYYTTLSANSYCRTVIPGATWDCIHCDATEDLKIIKTWSTLIYDTNAMVARGDSEKTIYIVFRGSSSIRNWIADLTFVPVSYPPVSGTKVHKGFLDSYGEVQNELVATVLDQFKQYPSYKVAVTGHSLGGATALLCALDLYQREEGLSSSNLFLYTQGQPRVGDPAFANYVVSTGIPYRRTVNERDIVPHLPPAAFGFLHAGEEYWITDNSPETVQVCTSDLETSDCSNSIVPFTSVLDHLSYFGINTGLCT
Q: Which “Activity with 4-Acetoxyphenol” value [4] does the source give for B1 here?
A: 3.43 µmol/mg/min

B2: Alcalase 2.5 Type DX: Subtilisin, Novozyme, Bacillus licheniformis (protein, UniProt P00780 106-379, looked up)
Subtilisin Carlsberg: AQTVPYGIPLIKADKVQAQGFKGANVKVAVLDTGIQASHPDLNVVGGASFVAGEAYNTDGNGHGTHVAGTVAALDNTTGVLGVAPSVSLYAVKVLNSSGSGSYSGIVSGIEWATTNGMDVINMSLGGASGSTAMKQAVDNAYAKGVVVVAAAGNSGSSGNTNTIGYPAKYDSVIAVGAVDSNSNRASFSSVGAELEVMAPGAGVYSTYPTNTYATLNGTSMASPHVAGAAALILSKHPNLSASQVRNRLSSTATYLGSSFYYGKGLINVEAAAQ
modifications: commercial Novozymes enzyme preparation
notes: Subtilisin, Novozyme, Bacillus licheniformis
Q: Which “Activity with 4-Acetoxyphenol” value [4] does the source give for B2 here?
A: 1.93 µmol/mg/min

B3: Lipolase 100 L: Lipase, Novozyme, Thermomyces lanuginosus (protein, UniProt O59952 23-291, looked up)
Lipase: EVSQDLFNQFNLFAQYSAAAYCGKNNDAPAGTNITCTGNACPEVEKADATFLYSFEDSGVGDVTGFLALDNTNKLIVLSFRGSRSIENWIGNLNFDLKEINDICSGCRGHDGFTSSWRSVADTLRQKVEDAVREHPDYRVVFTGHSLGGALATVAGADLRGNGYDIDVFSYGAPRVGNRAFAEFLTVQTGGTLYRITHTNDIVPRLPPREFGYSHSSPEYWIKSGTLVPVTRNDIVKIEGIDATGGNNQPNIPDIPAHLWYFGLIGTCL
modifications: commercial Novozymes enzyme preparation
notes: Lipase, Novozyme, Thermomyces lanuginosus
Q: With B3 as the molecule, how does the “Activity with 4-Acetoxyphenol” value [4] read?
A: 1.59 µmol/mg/min
